Source: US5496826A, “Pharmaceutical methods of using heterocyclic derivatives of N-phenylamides” (Bristol-Myers Squibb Company, priority 1994, dated 1996)

What was measured:
[1] = test system: pentylenetetrazol (PTZ)-induced seizures; experiment: Pentylenetetrazole (PTZ)-Induced Seizure Test; assay type: in vivo, female C57BI/6 mice; conditions: 50 mg/kg i.p., mice, 30 min before 75 mg/kg PTZ i.p.
Experimental: (§1) The anticonvulsive properties of the compounds of the invention were evaluated using two standard animal models of epilepsy: the maximal electroshock test (MES) and the pentylenetetrazol (PTZ)-induced seizure procedure. Melatonergic action is indicated by binding studies done in hamster hypothalamus tissue.
1. Pentylenetetrazole--Induced Seizure Test
The PTZ technique employed was similar to that disclosed in P.C.T. publication WO 93/0572 (PCT/US92/07675), published on Apr. 1, 1993.
In the PTZ procedure, female C57BI/6 mice (17-26 g) were injected j.p. (vol=0.1 ml/20 g) with test compound or vehicle 30 min before i.p. administration of 75 mg/kg pentylenetetrazol. Multiple doses of reference compounds (ethosuximide, trimethadione, and pentobarbital) were tested at the peak of activity and at the dose range reported in the literature. Ten mice were used per group. After injection, mice were placed in individual observation cages and monitored for one hour. During the first thirty minutes following PTZ injection, seizure activity was recorded by measure: the latency to the onset of pre-convulsive activity (Pre) the latency to the onset of the first clonic seizure longer than five seconds (First) the latency to the onset of the first intense-generalized clonic/tonic seizure (IGS) and the length of survival (Surv Time). During the second thirty-minute period, only time of death was recorded.
Those compounds that produced a significant delay in the onset of seizure activity or delayed (or abolished) mortality when compared to that produced by vehicle (reference) were classified as anticonvulsants. Significant differences between animals treated with reference or test compounds were determined using the Student's t-test.

[2] = test system: tonic seizure produced by 50 milliamps current through corneal electrodes (hind limb tonic extension); experiment: Maximum Electroshock Test (MES); assay type: in vivo, female C57Bl/6 mice; conditions: Mus musculus, ip, 0.5 h; mice, i.p. 30 min before MES; abolition of hind limb tonic extension; read-out: MES Results: median effective dose (ED50)
Experimental: as §1
2. Maximum Electroshock Test
The MES procedure used is based upon the tests disclosed by Swinyard and et al in J. Pharmacol, Expt. Ther., (1952) 106, 319 and L. A. Woodbury et al in Arch. Int. Pharmocodyn, (1952), 92-97. These tests are also described in U.S. Pat. Nos. 5,242,942 and 5,240,937, respectively.
In the MES procedure, a tonic seizure was produced in female C57Bl/6 mice (17-26 g) by the delivery of a 50 milliamps current through corneal electrodes for 0.2 sec. Before testing, the animals were allowed food and water ad libitum. Compounds were injected i.p. 30 min before the MES. Reference compounds (phenytoin, carbamazepine, phenobarbital, and valproic acid) were tested at the peak of activity and at the dose range reported in the literature. Seven mice were used per group. In this test anticonvulsive activity was indicated by the abolition of the hind limb tonic extension. The median effective dose (ED50) was obtained for each compound and compared to ED50 's of reference compound(s).

| Compound | First: latency to first seizure [1] | IGS: onset of intense, generalized seizures [1] | Pre: latency to first twitch [1] | Surv Time: duration of survival [1] | Surv: survival at one hour postPTZ [1] | ED50 [2] [mg/kg] |
| --- | --- | --- | --- | --- | --- | --- |
| CNC(=O)Nc1ccccc1-c1nc2ccccc2o1 [Example 12, N-[2-(benzoxazol-2-yl)phenyl]-N'-methyl urea] | +++ (>300% controls) | + (>100% controls) | + (>100% controls) | ++ (>200% controls) | ++ (>200% controls) | < 100 |
| CNC(=O)Nc1ccccc1-c1nc2ccccc2[nH]1 [Example 10, N-[2-(benzimidazol-2-yl)phenyl]-N'-methyl urea] | ++ (>200% controls) |  | + (>100% controls) | ++ (>200% controls) | ++++ (>400% controls) | < 75 |
| CC(=O)Nc1ccccc1-c1nc2ccccc2s1 [Example 13, N-[2-(benzthiazol-2-yl)phenyl] acetamide] |  |  |  |  |  | < 25 |
| CC(=O)Nc1ccccc1-c1nc2ccccc2o1 [Example 11, N-[2-(benzoxazol-2-yl)phenyl] acetamide] |  |  |  |  |  | < 75 |
| COc1ccc2[nH]c(-c3ccccc3NC(C)=O)nc2c1 [Example 15, N-[2-(5-methoxy-1H-benzimidazol-2-yl)phenyl] acetamide] | + (>100% controls) |  | + (>100% controls) | ++ (>200% controls) |  |  |
| COCC(=O)Nc1ccccc1-c1nc2ccccc2[nH]1 [Example 2, N-[2-(benzimidazol-2-yl)phenyl] methoxyacetamide] |  |  |  |  |  | < 75 |
| CCC(=O)Nc1ccccc1-c1nc2ccccc2[nH]1 [Example 1, N-[2-(1H-benzimidazol-2-yl)phenyl] propanamide] |  |  |  |  |  | < 25 |
